Reference: ChEMBL document CHEMBL1201862, “PubChem BioAssay data set” (2004)
Values joined by “and” are separate entries in the source; they are usually repeats but may differ in a detail not shown here. Equal values may be shown once.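 Five compound concentrations were applied to cells in 96-well plates for 48 hours; endpoints were derived by simple linear interpolation of the resulting dose-response curve. GI50 is the concentration that inhibits growth by half.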 Active and inactive are the calls of the source. No stated cut-off is given here; in the data, active = GI50 up to about 1.1 µM and inactive = higher.

How the values were obtained:
Assay in all cases: growth of human tumour cells (NCI), 48 h
A549 = system: A549
MOLT-4 = system: MOLT-4
NCI-H23 = system: NCI-H23
PC-3 = system: PC-3
SF-295 = system: SF-295
SR = system: SR
CCRF-CEM = system: CCRF-CEM
OVCAR-3 = system: OVCAR-3
HT-29 = system: HT-29
SK-MEL-28 = system: SK-MEL-28
OVCAR-4 = system: OVCAR-4
Malme-3M = system: Malme-3M
HOP-62 = system: HOP-62
TK-10 = system: TK-10
SNB-19 = system: SNB-19
U-251 = system: U-251
Hs-578T = system: Hs-578T
MDA-MB-435 = system: MDA-MB-435
T47D = system: T47D
NCI-H226 = system: NCI-H226

Structure (SMILES) | GI50 (A549) | GI50 (MOLT-4) | GI50 (NCI-H23) | GI50 (PC-3) | GI50 (SF-295) | GI50 (SR) | GI50 (CCRF-CEM) | GI50 (OVCAR-3) | GI50 (HT-29) | GI50 (SK-MEL-28) | GI50 (OVCAR-4) | GI50 (Malme-3M) | GI50 (HOP-62) | GI50 (TK-10) | GI50 (SNB-19) | GI50 (U-251) | GI50 (Hs-578T) | GI50 (MDA-MB-435) | GI50 (T47D) | GI50 (NCI-H226)
COc1nc(SC)nc2c1C(O)n1c(nc3ccccc31)S2 (configuration not stated) | 28.6 µM (inactive) | 4.15 µM (inactive) | 19.5 µM (inactive) | 19.3 µM (inactive) | 20.7 µM (inactive) | 3.58 µM (inactive) | 2.32 µM (inactive) | 32.7 µM (inactive) | 35.9 µM (inactive) | 9.16 µM (inactive) | 17.4 µM (inactive) | 40 µM (inactive) | 12.1 µM (inactive) | 23.7 µM (inactive) | 25.2 µM (inactive) | 10.6 µM (inactive) | 16 µM (inactive) | 20.1 µM (inactive) | – | –
CCOC(=O)c1c(-c2ccc(Cl)cc2)c(C#N)c(=S)n(C2OC(COC(C)=O)C(OC(C)=O)C(OC(C)=O)C2OC(C)=O)c1C (configuration not stated) | > 100 µM (inactive) | > 100 µM (inactive) | > 100 µM (inactive) | 0.759 µM (active) | > 100 µM (inactive) | > 100 µM (inactive) | > 100 µM (inactive) | > 100 µM (inactive) | > 100 µM (inactive) | > 100 µM (inactive) | 90.2 µM (inactive) | > 100 µM (inactive) | > 100 µM (inactive) | > 100 µM (inactive) | > 100 µM (inactive) | > 100 µM (inactive) | – | > 100 µM (inactive) | > 100 µM (inactive) | > 100 µM (inactive)
O=C1c2ccccc2C(=O)c2[nH]c(Cc3ccc(F)cc3)nc21 | 19.5 µM (inactive) | 24.8 µM (inactive) | > 10 µM (inactive) | – | 16.7 µM (inactive) | 21.6 µM (inactive) | 24.6 µM (inactive) | 5.4 µM (inactive) | 15.9 µM (inactive) | 18.7 µM (inactive) | 14.8 µM (inactive) | 14.5 µM (inactive) | 21.9 µM (inactive) | 34.1 µM (inactive) | 24.4 µM (inactive) | 22.6 µM (inactive) | – | – | – | 22.8 µM (inactive)
CC(=O)OCC1OC(n2c(C)c(C(C)=O)c(-c3ccco3)c(C#N)c2=S)C(OC(C)=O)C(OC(C)=O)C1OC(C)=O (configuration not stated) | > 100 µM (inactive) | 60 µM (inactive) | > 100 µM (inactive) | > 100 µM (inactive) | > 100 µM (inactive) | > 100 µM (inactive) | > 100 µM (inactive) and 53.2 µM (inactive) | > 100 µM (inactive) | > 100 µM (inactive) | > 100 µM (inactive) | – | > 100 µM (inactive) | > 100 µM (inactive) | > 100 µM (inactive) | > 100 µM (inactive) | > 100 µM (inactive) | – | > 100 µM (inactive) | > 100 µM (inactive) | > 100 µM (inactive)
CC(C)C(/C=C/c1ccc(Cl)c(Cl)c1)=N\NC(=O)N/N=C(/C=C/c1ccc(Cl)c(Cl)c1)C(C)C | – | > 100 µM (inactive) | > 100 µM (inactive) | > 100 µM (inactive) | > 100 µM (inactive) | 86.1 µM (inactive) | > 100 µM (inactive) | > 100 µM (inactive) | > 100 µM (inactive) | > 100 µM (inactive) | > 100 µM (inactive) | > 100 µM (inactive) | > 100 µM (inactive) | > 100 µM (inactive) | > 100 µM (inactive) | > 100 µM (inactive) | > 100 µM (inactive) | > 100 µM (inactive) | – | > 100 µM (inactive)
Nc1nc(N)c2nnn(C[C@H]3CC[C@@H](CO)C3)c2n1 | > 100 µM (inactive) | > 100 µM (inactive) | > 100 µM (inactive) | > 100 µM (inactive) | > 100 µM (inactive) | > 100 µM (inactive) | > 100 µM (inactive) | > 100 µM (inactive) | > 100 µM (inactive) | > 100 µM (inactive) | – | > 100 µM (inactive) | > 100 µM (inactive) | > 100 µM (inactive) | > 100 µM (inactive) | > 100 µM (inactive) | > 100 µM (inactive) | > 100 µM (inactive) | – | > 100 µM (inactive)
Cc1ccc(NC(=O)C(=O)C2C(=O)NC(=O)NC2=O)c(C)c1 | > 100 µM (inactive) | > 100 µM (inactive) | > 100 µM (inactive) | – | > 100 µM (inactive) | > 100 µM (inactive) | > 100 µM (inactive) | > 100 µM (inactive) | > 100 µM (inactive) | > 100 µM (inactive) | > 100 µM (inactive) | > 100 µM (inactive) | > 100 µM (inactive) | > 100 µM (inactive) | > 100 µM (inactive) | > 100 µM (inactive) | – | – | – | 17.5 µM (inactive)
COc1ccc(NC(=O)CC/C(CC(=O)C(C)(C)C)=N\NC(=O)C(=O)NN)cc1 | > 100 µM (inactive) | > 100 µM (inactive) | > 100 µM (inactive) | – | > 100 µM (inactive) | > 100 µM (inactive) | > 100 µM (inactive) | > 100 µM (inactive) | > 100 µM (inactive) | > 100 µM (inactive) | > 100 µM (inactive) | > 100 µM (inactive) | > 100 µM (inactive) | > 100 µM (inactive) | > 100 µM (inactive) | > 100 µM (inactive) | – | – | – | > 100 µM (inactive)
Cc1cc2[nH]c3[nH]c(=O)[nH]c(=O)c3c2cc1C | > 100 µM (inactive) | – | > 100 µM (inactive) | – | > 100 µM (inactive) | 27.1 µM (inactive) | > 100 µM (inactive) | – | > 100 µM (inactive) | – | – | > 100 µM (inactive) | 29 µM (inactive) | > 100 µM (inactive) | 89.3 µM (inactive) | – | 69 µM (inactive) | > 100 µM (inactive) | > 100 µM (inactive) | > 100 µM (inactive)
CCOC(=O)C(=[N+]=[N-])C(=O)C1(C(=O)OCC)CCN(C(=O)c2ccccc2)C1=O (configuration not stated) | > 100 µM (inactive) | > 100 µM (inactive) | > 100 µM (inactive) | > 100 µM (inactive) | > 100 µM (inactive) | – | > 100 µM (inactive) | – | > 100 µM (inactive) | – | > 100 µM (inactive) | > 100 µM (inactive) | > 100 µM (inactive) | > 100 µM (inactive) | > 100 µM (inactive) | – | > 100 µM (inactive) | – | > 100 µM (inactive) | > 100 µM (inactive)
CC1(C)OCC2(CO1)CSCCCSCC1(COC(C)(C)OC1)CSCCCSC2 | > 100 µM (inactive) | > 100 µM (inactive) | > 100 µM (inactive) | > 100 µM (inactive) | > 100 µM (inactive) | > 100 µM (inactive) | > 100 µM (inactive) | > 100 µM (inactive) | > 100 µM (inactive) | > 100 µM (inactive) | > 100 µM (inactive) | – | > 100 µM (inactive) | > 100 µM (inactive) | > 100 µM (inactive) | > 100 µM (inactive) | – | > 100 µM (inactive) | > 100 µM (inactive) | –
COC(=O)C1=CC2C(=O)OC1CC2C#N (configuration not stated) | > 100 µM (inactive) | > 100 µM (inactive) | > 100 µM (inactive) | – | > 100 µM (inactive) | > 100 µM (inactive) | > 100 µM (inactive) | > 100 µM (inactive) | > 100 µM (inactive) | > 100 µM (inactive) | > 100 µM (inactive) | > 100 µM (inactive) | > 100 µM (inactive) | > 100 µM (inactive) | > 100 µM (inactive) | > 100 µM (inactive) | – | – | – | > 100 µM (inactive)
Nc1ccc2ncc(NCc3ccc(F)cc3)nc2c1 | > 100 µM (inactive) | 41.9 µM (inactive) | > 100 µM (inactive) | – | 56.2 µM (inactive) | 70 µM (inactive) | > 100 µM (inactive) | 38.9 µM (inactive) | > 100 µM (inactive) | > 100 µM (inactive) | 92.3 µM (inactive) | > 100 µM (inactive) | 40.6 µM (inactive) | 97.3 µM (inactive) | > 100 µM (inactive) | > 100 µM (inactive) | – | – | – | 40.9 µM (inactive)
N#CC(NNC(=O)c1c(Cl)c(Cl)c(Cl)c(Cl)c1-c1nc2cc(C(=O)c3ccccc3)ccc2[nH]1)c1cccc(Oc2ccccc2)c1 (configuration not stated) | 30.9 µM (inactive) | 24.3 µM (inactive) | 26.4 µM (inactive) | 18.8 µM (inactive) | 28.5 µM (inactive) | 20.6 µM (inactive) | 15.6 µM (inactive) | 28.1 µM (inactive) | 27.4 µM (inactive) | 24.3 µM (inactive) | 18.6 µM (inactive) | – | 25.8 µM (inactive) | 31.3 µM (inactive) | 26.6 µM (inactive) | 23.4 µM (inactive) | – | 16.6 µM (inactive) | 18.9 µM (inactive) | 21.3 µM (inactive)
CN(C)CCNC1=CC(=O)c2nc3ccccc3c3ccnc1c23 | 4.52 µM (inactive) | 2.48 µM (inactive) | 5.56 µM (inactive) | 3.36 µM (inactive) | 4.47 µM (inactive) | 2.25 µM (inactive) | 3.88 µM (inactive) | 2.78 µM (inactive) | 2.58 µM (inactive) | 11.4 µM (inactive) | 3.57 µM (inactive) | 3 µM (inactive) | 4.79 µM (inactive) | 8.2 µM (inactive) | 5.01 µM (inactive) | 8.26 µM (inactive) | 4.95 µM (inactive) | 7.52 µM (inactive) | – | 2.04 µM (inactive)
N#Cc1c(N)c(C#N)c2c(c1-c1ccc(Cl)cc1)COc1ccccc1-2 | 14.5 µM (inactive) | 11.4 µM (inactive) | 16.7 µM (inactive) | 16.8 µM (inactive) | – | 11.4 µM (inactive) | 16.5 µM (inactive) | 13.7 µM (inactive) | 13.2 µM (inactive) | 16.5 µM (inactive) | 11.1 µM (inactive) | 22 µM (inactive) | 14.9 µM (inactive) | 14.6 µM (inactive) | 14.5 µM (inactive) | 14.7 µM (inactive) | – | 31.7 µM (inactive) | 18.8 µM (inactive) | 32.1 µM (inactive)
